The target in the experiment is T1, recombinant human ALK enzyme (ALK WT) (Homo sapiens, UniProt Q9UM73).
T1 construct: purchased Carna Biosciences 08-518
Put plainly: ALK WT cell free enzymatic assay (TR-FRET). The experiment is classed as biochemical. The conditions noted are these: 1 μM ATP; for IC50: 10 point dose response; for inhibition at 0.1 µM: compound at 100 nM; for inhibition at 0.1 µM / inhibition at 1 µM: 30 min pre-incubation; for inhibition at 1 µM: compound at 1 μM. The method, boiled down: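 Read-out is TR-FRET (665 nm/615 nm ratio) using an Eu-labeled anti-phosphotyrosine antibody. Compound is pre-incubated 30 min with recombinant human ALK, then reacted 30 min with 1 μM ATP and 40 nM Poly GT substrate. Values are percent inhibition at 100 nM and 1 μM, plus IC50 from 10-point variable-slope regression.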
(In general: TR-FRET usually uses a lanthanide donor and a delayed reading to cut background.)

Structures are written as SMILES. Where a name gives a salt, the structure may show the parent alone.

24 compounds from patent US9353107B2 (Aurigene Discovery Technologies Limited, priority 2012, dated 2016) can be followed below.

T1 sequence (Q9UM73 1058-1620 limits assumed): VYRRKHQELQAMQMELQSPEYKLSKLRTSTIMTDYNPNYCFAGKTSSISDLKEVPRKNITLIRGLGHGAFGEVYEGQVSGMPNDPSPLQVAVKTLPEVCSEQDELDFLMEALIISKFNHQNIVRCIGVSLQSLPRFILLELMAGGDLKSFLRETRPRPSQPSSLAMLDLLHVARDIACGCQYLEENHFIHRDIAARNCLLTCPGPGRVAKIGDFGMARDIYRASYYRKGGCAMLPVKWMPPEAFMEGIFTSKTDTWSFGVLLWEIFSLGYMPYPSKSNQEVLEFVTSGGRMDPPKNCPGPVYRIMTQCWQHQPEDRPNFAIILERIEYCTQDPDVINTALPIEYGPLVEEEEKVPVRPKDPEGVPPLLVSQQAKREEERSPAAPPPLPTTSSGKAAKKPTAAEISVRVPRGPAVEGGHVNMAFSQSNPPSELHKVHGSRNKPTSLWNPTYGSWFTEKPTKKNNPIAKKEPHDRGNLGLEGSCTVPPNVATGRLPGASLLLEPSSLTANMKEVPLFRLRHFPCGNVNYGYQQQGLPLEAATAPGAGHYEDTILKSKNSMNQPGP

In the case of `COc1cc(-c2cnc3[nH]cc(-c4c(C)nn(Cc5cccc(F)c5)c4C)c3c2)ccc1N1CCNCC1` [Example 62, 3-(1-(3-fluorobenzyl)-3,5-dimethyl-1H-pyrazol-4-yl)-5-(3-methoxy-4-(piperazin-1-yl)phenyl)-1H-pyrrolo[2,3-b]pyridine hydrochloride], the IC50 is less than 50 nM, the inhibition at 0.1 µM turned out to be 87% and the inhibition at 1 µM is 100%.

On to `Cc1nn(Cc2cccc(F)c2)c(C)c1-c1c(C2CC2)[nH]c2ncc(-c3ccc(N4CCNCC4)cc3)cc12` [Example 63, 2-cyclopropyl-3-(1-(3-fluorobenzyl)-3,5-dimethyl-1H-pyrazol-4-yl)-5-(4-(piperazin-1-yl)phenyl)-1H-pyrrolo[2,3-b]pyridine], for which the inhibition at 0.1 µM amounted to 15% and the inhibition at 1 µM turned out to be 48%.

On to `COc1ccc(-c2cnc3[nH]cc(-c4cnn(CCc5ccccc5)c4)c3c2)cc1NS(C)(=O)=O` [Example 64, N-(2-methoxy-5-(3-(1-phenethyl-1H-pyrazol-4-yl)-1H-pyrrolo[2,3-b]pyridin-5-yl)phenyl) methanesulfonamide], for which the IC50 was less than 50 nM, the inhibition at 0.1 µM stood at 59% and the inhibition at 1 µM came to 82%.

As to `COc1ncc(-c2cnc3[nH]cc(-c4cnn(Cc5cccc(F)c5)c4)c3c2)cc1N` [Example 65, 5-(3-(1-(3-fluorobenzyl)-1H-pyrazol-4-yl)-1H-pyrrolo[2,3-b]pyridin-5-yl)-2-methoxypyridin-3-amine], the IC50 is less than 50 nM, the inhibition at 0.1 µM came to 97% and the inhibition at 1 µM amounted to 100%.

With `Cc1nn(Cc2cccc(F)c2)c(C)c1-c1c[nH]c2ncc(-c3cnc(O)c(NS(C)(=O)=O)c3)cc12` [Example 66, N-(5-(3-(1-(3-fluorobenzyl)-3,5-dimethyl-1H-pyrazol-4-yl)-1H-pyrrolo[2,3-b]pyridin-5-yl)-2-hydroxypyridin-3-yl)methanesulfonamide], the inhibition at 0.1 µM is 38% and the inhibition at 1 µM was 95%.

Regarding `COc1ncc(-c2cnc3[nH]cc(-c4cnn(Cc5cccc(F)c5)c4)c3c2)cc1NS(C)(=O)=O` [Example 67, N-(5-(3-(1-(3-fluorobenzyl)-1H-pyrazol-4-yl)-1H-pyrrolo[2,3-b]pyridin-5-yl)-2-methoxypyridin-3-yl)methanesulfonamide], the IC50 was less than 50 nM, the inhibition at 0.1 µM was 98% and the inhibition at 1 µM was 100%.

Regarding `COc1cc(-c2cnc3[nH]cc(-c4cnn(Cc5cccc(F)c5)c4)c3c2)ccc1NS(C)(=O)=O` [Example 68, N-(4-(3-(1-(3-fluorobenzyl)-1H-pyrazol-4-yl)-1H-pyrrolo[2,3-b]pyridin-5-yl)-2-methoxyphenyl) methanesulfonamide], the inhibition at 0.1 µM stood at 70% and the inhibition at 1 µM amounted to 93%.

With `COc1ccc(-c2cnc3[nH]cc(-c4ccn(Cc5cc(F)cc(F)c5)n4)c3c2)cc1NS(C)(=O)=O` [Example 69, N-(5-(3-(1-(3,5-difluorobenzyl)-1H-pyrazol-3-yl)-1H-pyrrolo[2,3-b]pyridin-5-yl)-2-methoxyphenyl)methanesulfonamide], the inhibition at 0.1 µM was found to be 15% and the inhibition at 1 µM came out at 76%.

In the case of `COc1ccc(-c2cnc3[nH]cc(-c4cnn(Cc5cc(F)ccc5F)c4)c3c2)cc1NS(C)(=O)=O` [Example 70, N-(5-(3-(1-(2,5-difluorobenzyl)-1H-pyrazol-4-yl)-1H-pyrrolo[2,3-b]pyridin-5-yl)-2-methoxyphenyl)methanesulfonamide], the half-inhibitory concentration (IC50) was less than 50 nM, the inhibition at 0.1 µM stood at 91% and the inhibition at 1 µM stood at 99%.

With `COc1ccc(-c2cnc3[nH]cc(-c4cnn(Cc5cc(F)cc(F)c5)c4)c3c2)cc1NS(C)(=O)=O` [Example 71, N-(5-(3-(1-(3,5-difluorobenzyl)-1H-pyrazol-4-yl)-1H-pyrrolo[2,3-b]pyridin-5-yl)-2-methoxyphenyl)methanesulfonamide], the IC50 was less than 50 nM, the inhibition at 0.1 µM was determined as 94% and the inhibition at 1 µM stood at 100%.

In the case of `COc1ccc(-c2cnc3[nH]cc(-c4cnn(Cc5cccnc5)c4)c3c2)cc1NS(C)(=O)=O` [Example 72, N-(2-methoxy-5-(3-(1-(pyridin-3-ylmethyl)-1H-pyrazol-4-yl)-1H-pyrrolo[2,3-b]pyridin-5-yl)phenyl)methanesulfonamide], the concentration for half-maximal inhibition (IC50) was in the range of 50 to 250 nM, the inhibition at 0.1 µM worked out at 76% and the inhibition at 1 µM came out at 100%.

In the case of `COc1cc(-c2cnc3[nH]cc(-c4cnn(Cc5cc(F)cc(F)c5)c4)c3c2)ccc1NS(C)(=O)=O` [Example 73, N-(4-(3-(1-(3,5-difluorobenzyl)-1H-pyrazol-4-yl)-1H-pyrrolo[2,3-b]pyridin-5-yl)-2-methoxyphenyl)methanesulfonamide], the IC50 was less than 50 nM, the inhibition at 0.1 µM turned out to be 92% and the inhibition at 1 µM stood at 97%.

`COc1ccc(-c2cnc3[nH]cc(-c4cnn(CCc5ccccc5F)c4)c3c2)cc1NS(C)(=O)=O` [Example 74, N-(5-(3-(1-(2-fluorophenethyl)-1H-pyrazol-4-yl)-1H-pyrrolo[2,3-b]pyridin-5-yl)-2-methoxyphenyl)methanesulfonamide]: the IC50 fell in the range of 50 to 250 nM, the inhibition at 0.1 µM turned out to be 51% and the inhibition at 1 µM was 92%.

For `COc1ccc(-c2cnc3[nH]cc(-c4cnn(CCc5cccc(F)c5)c4)c3c2)cc1NS(C)(=O)=O` [Example 75, N-(5-(3-(1-(3-fluorophenethyl)-1H-pyrazol-4-yl)-1H-pyrrolo[2,3-b]pyridin-5-yl)-2-methoxyphenyl)methanesulfonamide], the IC50 was less than 50 nM, the inhibition at 0.1 µM came to 61% and the inhibition at 1 µM was 100%.

On to `COc1ccc(-c2cnc3[nH]cc(-c4cnn(CCc5ccc(F)cc5)c4)c3c2)cc1NS(C)(=O)=O` [Example 76, N-(5-(3-(1-(4-fluorophenethyl)-1H-pyrazol-4-yl)-1H-pyrrolo[2,3-b]pyridin-5-yl)-2-methoxyphenyl)methanesulfonamide], for which the IC50 lay within 50 to 250 nM, the inhibition at 0.1 µM came to 32% and the inhibition at 1 µM is 94%.

As to `CS(=O)(=O)Nc1cc(-c2cnc3[nH]cc(-c4cnn(CCc5ccccc5)c4)c3c2)ccc1F` [Example 77, N-(2-fluoro-5-(3-(1-phenethyl-1H-pyrazol-4-yl)-1H-pyrrolo[2,3-b]pyridin-5-yl)phenyl)methane sulfonamide], the IC50 is less than 50 nM, the inhibition at 0.1 µM worked out at 85% and the inhibition at 1 µM was 100%.

In the case of `CS(=O)(=O)Nc1cc(-c2cnc3[nH]cc(-c4cnn(Cc5cccc(F)c5)c4)c3c2)ccc1F` [Example 78, N-(2-fluoro-5-(3-(1-(3-fluorobenzyl)-1H-pyrazol-4-yl)-1H-pyrrolo[2,3-b]pyridin-5-yl)phenyl) methanesulfonamide], the IC50 is less than 50 nM, the inhibition at 0.1 µM came to 100% and the inhibition at 1 µM was determined as 101%.

In the case of `CS(=O)(=O)Nc1cc(-c2cnc3[nH]cc(-c4cnn(Cc5cc(F)cc(F)c5)c4)c3c2)ccc1F` [Example 79, N-(5-(3-(1-(3,5-difluorobenzyl)-1H-pyrazol-4-yl)-1H-pyrrolo[2,3-b]pyridin-5-yl)-2-fluorophenyl) methanesulfonamide], the IC50 was less than 50 nM, the inhibition at 0.1 µM was 101% and the inhibition at 1 µM came to 102%.

Turning to `Cc1nn(Cc2cc(F)cc(F)c2)c(C)c1-c1c[nH]c2ncc(-c3ccc(F)c(NS(C)(=O)=O)c3)cc12` [Example 80, N-(5-(3-(1-(3,5-difluorobenzyl)-3,5-dimethyl-1H-pyrazol-4-yl)-1H-pyrrolo[2,3-b]pyridin-5-yl)-2-fluorophenyl)methanesulfonamide], the IC50 lay in the range of 50 to 250 nM, the inhibition at 0.1 µM amounted to 65% and the inhibition at 1 µM is 93%.

`COc1cc(-c2cnc3[nH]cc(-c4cnn(Cc5cccc(F)c5)c4)c3c2)cnc1N` [Example 81, 5-(3-(1-(3-fluorobenzyl)-1H-pyrazol-4-yl)-1H-pyrrolo[2,3-b]pyridin-5-yl)-3-methoxypyridin-2-amine]: the IC50 was less than 50 nM, the inhibition at 0.1 µM was determined as 94% and the inhibition at 1 µM is 96%.

As to `Fc1cccc(Cn2cc(-c3c[nH]c4ncc(-c5ccc(C6CCNCC6)cc5)cc34)cn2)c1` [Example 82, 3-(1-(3-fluorobenzyl)-1H-pyrazol-4-yl)-5-(4-(piperidin-4-yl)phenyl)-1H-pyrrolo[2,3-b]pyridine], the IC50 was less than 50 nM, the inhibition at 0.1 µM came to 99% and the inhibition at 1 µM amounted to 100%.

For the compound `C[C@H](O)CN1CCC(c2ccc(-c3cnc4[nH]cc(-c5cnn(Cc6cccc(F)c6)c5)c4c3)cc2)CC1` [Example 82A, (S)-1-(4-(4-(3-(1-(3-fluorobenzyl)-1H-pyrazol-4-yl)-1H-pyrrolo[2,3-b]pyridin-5-yl)phenyl)piperidin-1-yl)propan-2-ol], the IC50 was less than 50 nM, the inhibition at 0.1 µM was found to be 96% and the inhibition at 1 µM came out at 98%.

With `CN1CCC(c2ccc(-c3cnc4[nH]cc(-c5cnn(Cc6cccc(F)c6)c5)c4c3)cc2)CC1` [Example 83, 3-(1-(3-fluorobenzyl)-1H-pyrazol-4-yl)-5-(4-(1-methylpiperidin-4-yl)phenyl)-1H-pyrrolo[2,3-b]pyridine], the IC50 is less than 50 nM, the inhibition at 0.1 µM was 96% and the inhibition at 1 µM is 100%.

Regarding `Fc1cccc(Cn2cc(-c3c[nH]c4ncc(-c5ccc(C6CCNCC6)c(F)c5)cc34)cn2)c1` [Example 84, 5-(3-fluoro-4-(piperidin-4-yl)phenyl)-3-(1-(3-fluorobenzyl)-1H-pyrazol-4-yl)-1H-pyrrolo[2,3-b]pyridine], the IC50 is less than 50 nM, the inhibition at 0.1 µM amounted to 98% and the inhibition at 1 µM was determined as 100%.

By IC50 is commonly meant the concentration that inhibits the measured activity by half. By inhibition is commonly meant the relative decrease from the control value, in per cent.
